Measured values taken from patent US20130184222A1, “[…] ACTIVE COMPOSITIONS AND THEIR METHODS OF USE” (AGIOS PHARMACEUTICALS, INC, priority 2010, published 2013).

Legend:
[1] = biological target: IDH1 R132H (Homo sapiens, UniProt O75874, R132H); test: In vitro assay for IDH1 R132H inhibitors (NADPH/aKG, resazurin detection); format: biochemical; details: Table 4B; 0.2 μg/ml IDH1 R132H, 50 minutes at room temperature; read-out: IC50, IDH1 R132H Inhibition
Outline: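 Buffer: 150 mM NaCl, 10 mM MgCl2, 20 mM Tris pH 7.5, 0.03% BSA. Compound was added to substrate mix (8 uM NADPH, 2 mM aKG), then enzyme mix (0.2 μg/ml IDH1 R132H), and incubated 50 min at room temperature. Remaining NADPH was read by resazurin (30 μM in detection mix) to resorufin fluorescence after 5 min, Ex544/Em590.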

[2] = tested on: HT1080 cells; test: Cellular assay: inhibition of 2-HG production in HT1080 cells (LC-MS, 48 hours); format: cell-based; details: Homo sapiens, HT-1080, 2-HG in media by LC-MS
Outline: (§1)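 HT1080 or U87MG cells (5000/well, DMEM + 10% FBS) seeded overnight, then exposed to compound (0.2% DMSO final) for 48 h; medium 2-HG measured by LC-MS. Viability read by CellTiter-Glo luminescence at 72 h.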

[3] = tested on: U87MG cells; test: Cellular assay: inhibition of 2-HG production in U87MG cells (LC-MS, 48 hours); format: cell-based; details: Homo sapiens, U-87 MG, 2-HG in media by LC-MS
Outline: as §1

Sequence of IDH1 R132H (O75874 whole entry R132H): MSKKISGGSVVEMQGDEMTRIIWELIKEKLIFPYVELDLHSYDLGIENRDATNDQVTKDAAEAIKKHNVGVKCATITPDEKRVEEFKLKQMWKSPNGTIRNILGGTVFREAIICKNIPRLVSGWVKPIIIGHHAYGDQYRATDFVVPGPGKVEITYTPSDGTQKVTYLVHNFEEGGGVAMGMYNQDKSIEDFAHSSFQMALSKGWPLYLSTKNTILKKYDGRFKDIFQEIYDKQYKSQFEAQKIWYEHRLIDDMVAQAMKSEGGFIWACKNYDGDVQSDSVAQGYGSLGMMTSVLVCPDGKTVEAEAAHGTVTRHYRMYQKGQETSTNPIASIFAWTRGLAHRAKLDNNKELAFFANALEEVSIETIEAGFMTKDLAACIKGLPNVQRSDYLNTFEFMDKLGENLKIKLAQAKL

IC50 [1] [nM]	IC50 [2] [nM]	IC50 [3] [nM]	Structure (SMILES)
≤ 100	250 to 1000	≤ 250	COC(=O)N1CCCC1C(=O)N(c1cccc(F)c1)C(C(=O)NC1CCCCC1)c1ccccc1C (stereo not drawn) [Compound 306]
≤ 100	≤ 250	≤ 250	Cc1ccccc1C(C(=O)NC1CCCCC1)N(C(=O)Cn1c(C)nc2ccccc21)c1cccc(F)c1 (stereo not drawn) [Compound 173]
100 to 1000	250 to 1000	250 to 1000	Cc1ccccc1C(C(=O)NC1CCCCC1)N(C(=O)CNC1Cc2cccnc2C1)c1cccc(F)c1 (stereo not drawn) [Compound 318]
100 to 1000	1000 to 5000	1000 to 5000	Cc1ccccc1C(C(=O)NC1CCCCC1)N(C(=O)CNc1ccnc(F)c1)c1cccc(F)c1 (stereo not drawn) [Compound 280]
100 to 1000	1000 to 5000	1000 to 5000	COc1ccc(CNCC(=O)N(c2cccc(F)c2)C(C(=O)NC2CCCCC2)c2ccccc2C)cc1 (stereo not drawn) [Compound 219]
100 to 1000	1000 to 5000	1000 to 5000	Cc1ccccc1C(C(=O)NC1CCCCC1)N(C(=O)Cn1ccnc1C)c1cccc(-c2cccc(OC(F)(F)F)c2)c1 (stereo not drawn) [Compound 292]
100 to 1000	250 to 1000	250 to 1000	Cc1ccccc1C(C(=O)NC1CCCCC1)N(C(=O)Cn1c(C)nc2ccccc21)c1ccn(C)n1 (stereo not drawn) [Compound 224]
100 to 1000	250 to 1000	250 to 1000	Cc1ccccc1C(C(=O)NC1CCCCC1)N(C(=O)Cc1ccccn1)c1cccc(F)c1 (stereo not drawn) [Compound 305]
100 to 1000	250 to 1000	250 to 1000	Cc1ccccc1C(C(=O)NC1CCCCC1)N(C(=O)CO[C@H]1CCOC1)c1cccc(F)c1 (stereo partly drawn) [Compound 251]
100 to 1000	1000 to 5000	1000 to 5000	Cc1ccccc1C(C(=O)NC1CCN(C(=O)OC(C)(C)C)C1)N(C(=O)Cc1cccs1)c1cccc(F)c1 (stereo not drawn) [Compound 190]
≤ 100	≤ 250	≤ 250	Cc1nccn1CC(=O)N(c1cccc(F)c1)C(C(=O)NC1CCCCC1)c1ccccc1Cl (stereo not drawn) [Compound 314]
100 to 1000	250 to 1000	≤ 250	Cc1ccccc1C(C(=O)NC1CCCCC1)N(C(=O)Cn1ccnc1C(F)(F)F)c1cccc(F)c1 (stereo not drawn) [Compound 344]
100 to 1000	250 to 1000	250 to 1000	Cc1ccccc1C(C(=O)NC1CC2CC2C1)N(C(=O)COc1ccccn1)c1cccc(F)c1 (stereo not drawn) [Compound 354]
100 to 1000	250 to 1000	≤ 250	Cc1ccccc1C(C(=O)NC1CCCCC1)N(C(=O)Cn1ccnc1C)c1cccc(-c2cnn(C)c2)c1 (stereo not drawn) [Compound 223]
100 to 1000	1000 to 5000	1000 to 5000	Cc1ccccc1C(C(=O)NC1CCCCC1)N(C(=O)CN[C@H]1CCOC1)c1cccc(F)c1 (stereo partly drawn) [Compound 191]
100 to 1000	250 to 1000	250 to 1000	Cc1ccccc1C(C(=O)NC1CCC(F)(F)CC1)N(C(=O)Cn1ccnc1C(F)(F)F)c1cccc(F)c1 (stereo not drawn) [Compound 373]
100 to 1000	1000 to 5000	250 to 1000	Cc1ccccc1C(C(=O)NC1CCCCC1)N(C(=O)Cn1ccnc1C)c1ccn(C)n1 (stereo not drawn) [Compound 246]
100 to 1000	250 to 1000	250 to 1000	Cc1ccccc1C(C(=O)NC1CCCCC1)N(C(=O)CNCc1nccs1)c1cccc(F)c1 (stereo not drawn) [Compound 257]
≤ 100	≤ 250	250 to 1000	Cc1ccccc1C(C(=O)NC1CCCCC1)N(C(=O)Cn1ccc2ccccc21)c1cccc(F)c1 (stereo not drawn) [Compound 271]
≤ 100	≤ 250	250 to 1000	Cc1ccccc1C(C(=O)NC1CCCCC1)N(C(=O)Cc1c[nH]c2cccnc12)c1cccc(F)c1 (stereo not drawn) [Compound 275]
≤ 100	≤ 250	250 to 1000	COc1cccc(NCC(=O)N(c2cccc(F)c2)C(C(=O)NC2CCCCC2)c2ccccc2C)c1 (stereo not drawn) [Compound 247]
100 to 1000	1000 to 5000	1000 to 5000	CCC(=O)N1CCCC[C@@H]1C(=O)N(c1cccc(F)c1)[C@H](C(=O)NC1CCCCC1)c1ccccc1C [Compound 347]
